According to patent publication US10328077B2 (CELGENE CORPORATION, priority 2016, dated 2019):
Read-outs that look alike come from different tables or passages of the source.

Legend:
[1] = biological target: human LSD-1 (Homo sapiens (Human), UniProt O60341); assay: In vitro enzyme inhibition assay LSD-1 (TR-FRET); assay type: biochemical; settings: TR-FRET, H3K4me1-biotin labeled peptide
Description: This assay determines the ability of a test compound to inhibit LSD-1 demethylase activity.
The enzymatic assay of LSD-1 activity is based on Time Resolved-Fluorescence Resonance Energy Transfer (TR-FRET) detection.

[2] = test system: Kasumi-1 AML cancer cell line; assay: Kasumi-1 AML cell line proliferation assay (Cell-MTS); assay type: cell-based; settings: Homo sapiens, 168 hours
Description: Colorimetric cellular assay to assess the ability of LSD-1 small molecule inhibitors to effect the proliferation of the established AML cancer cell line Kasumi-1
This Cell-MTS assay is a 7-day plate based colorimetric assay which quantifies the amount of newly generated NADH in the presence and absence of test compound. These NADH levels are used as a proxy for the quantification of cancer cell proliferation.
The established cancer cell line Kasumi-1 with a verified p53 mutation were purchased from American Type Culture Collection (ATCC) and routinely passaged according to ATCC published protocols. For routine assay these cells were seeded at a density of 20,000 cells per 96-well. […] At the end of this compound incubation period, 80 μl of media is removed and 20 μL of CellTiter 96® AQueous Non-Radioactive Cell Proliferation Assay solution (Promega) is added. The cells are incubated until the OD490 is >0.6. IC50 values are calculated using the IDBS XLfit software package and include background subtracted OD490 values and normalization to DMSO controls.

[3] = test system: CD11b expression in THP-1 (AML) cells; assay: LSD-1 CD11b cellular assay (flow cytometry); settings: Homo sapiens, THP-1, 96 h, read-out: THP-1 IC50
Description: To analyze LSD-1 inhibitor efficacy in cells, a CD11b flow cytometry assay was performed. […] LSD-1 test compounds were serially diluted in DMSO. The dilutions were added to each well accordingly to a final concentration of 0.2% DMSO. The cells were incubated at 37 degrees Celsius in 5% CO2 for 4 days. 250 μL of each well was transferred to a well in a 96 well round bottom plate. The plate was centrifuged at 1200 rpm at 4 degrees Celsius in a Beckman Coulter Alegra 6KR centrifuge for 5 minutes. The media was removed leaving the cells at the bottom of the wells. The cells were washed in 100 μL cold HBSS (Hank's Balanced Salt Solution) plus 2% BSA (Bovine Serum Albumin) solution and centrifuged at 1200 rpm at 4 degrees Celsius for 5 minutes. The wash was removed. […] The cells were centrifuged and washed two times in 100 μl HBSS plus 2% BSA. After the final spin the cells were resuspended in 100 μL HBSS plus 2% BSA containing 1 μg/mL DAPI (4′,6-diamidino-2-phenylindole). The cells were then analyzed by flow cytometry in a BD FACSAria machine. Cells were analyzed for CD11b expression. The percent of CD11b expressing cells for each inhibitor concentration was used to determine an IC50 curve for each compound analyzed.

[4] = test system: LXFS 573 SCLC patient-derived xenograft
[5] = test system: NCI-H1417 SCLC xenograft
[6] = Etoposide 24 mg/kg/day SC days 1-3 + vehicle

Cn1cc2cc(-c3c(-c4ccc(C#N)c(F)c4)nc(N4CCCNCC4)n(C)c3=O)ccc2n1 [Example 66, 4-[2-[1,4]diazepan-1-yl-1-methyl-5-(2-methyl-2H-indazol-5-yl)-6-oxo-1,6-dihydro-pyrimidin-4-yl]-2-fluoro-benzonitrile]
IC50 [1]: < 100 nM | IC50 [2]: < 100 nM | IC50 [3]: < 100 nM

CN(C)C1CCN(c2nc(-c3ccc(C#N)c(F)c3)c(-c3ccc4nn(C)cc4c3)c(=O)n2C)CC1 [Example 71, 4-[2-(4-dimethylamino-piperidin-1-yl)-1-methyl-5-(2-methyl-2H-indazol-5-yl)-6-oxo-1,6-dihydro-pyrimidin-4-yl]-2-fluoro-benzonitrile]
IC50 [1]: < 100 nM | IC50 [2]: < 100 nM | IC50 [3]: < 100 nM

COc1ccc(-c2c(-c3ccc(C#N)c(F)c3)nc(N3CCC(N)CC3)n(C)c2=O)cc1 [Example 6, 4-[2-(4-amino-piperidin-1-yl)-5-(4-methoxy-phenyl)-1-methyl-6-oxo-1,6-dihydro-pyrimidin-4-yl]-2-fluoro-benzonitrile]
IC50 [1]: < 100 nM | IC50 [2]: < 100 nM | IC50 [3]: < 100 nM

Cn1c(N2CCC(N)CC2)nc(-c2ccc(C#N)c(F)c2)c(-c2cnn(CC(F)(F)F)c2)c1=O [Example 34, 4-{2-(4-amino-piperidin-1-yl)-1-methyl-6-oxo-5-[1-(2,2,2-trifluoro-ethyl)-1H-pyrazol-4-yl]-1,6-dihydro-pyrimidin-4-yl}-2-fluoro-benzonitrile]
IC50 [1]: < 100 nM | IC50 [2]: < 100 nM | IC50 [3]: < 100 nM

Cn1c(N2CCC(N)CC2)nc(-c2ccc(C#N)cc2)c(-c2cnn(CC(F)(F)F)c2)c1=O [Example 36, 4-{2-(4-amino-piperidin-1-yl)-1-methyl-6-oxo-5-[1-(2,2,2-trifluoro-ethyl)-1H-pyrazol-4-yl]-1,6-dihydro-pyrimidin-4-yl}-benzonitrile]
IC50 [1]: < 100 nM | IC50 [2]: < 100 nM | IC50 [3]: < 100 nM

Cc1ccc(-c2c(-c3ccc(C#N)c(F)c3)nc(N3CCC(N)CC3)n(C)c2=O)cn1 [Example 9]
IC50 [1]: < 100 nM | IC50 [2]: < 100 nM | IC50 [3]: < 100 nM

CNC1CCN(c2nc(-c3ccc(C#N)c(F)c3)c(-c3ccc4nn(C)cc4c3)c(=O)n2C)CC1 [Example 65, 2-fluoro-4-[1-methyl-2-(4-methylamino-piperidin-1-yl)-5-(2-methyl-2H-indazol-5-yl)-6-oxo-1,6-dihydro-pyrimidin-4-yl]-benzonitrile]
IC50 [1]: < 100 nM | IC50 [2]: < 100 nM | IC50 [3]: < 100 nM

COc1ccc(-c2c(-c3ccc(C#N)cc3)nc(N3CCC(N)CC3)n(C)c2=O)cn1 [Example 3, 4-[2-(4-amino-piperidin-1-yl)-5-(6-methoxy-pyridin-3-yl)-1-methyl-6-oxo-1,6-dihydro-pyrimidin-4-yl]-benzonitrile]
IC50 [1]: < 100 nM | IC50 [2]: < 100 nM | IC50 [3]: < 100 nM

Cn1c(N2CCC(N)CC2)nc(-c2ccc(C#N)c(F)c2)c(-c2ccc3[nH]ncc3c2)c1=O [Example 88, 4-[2-(4-aminopiperidin-1-yl)-5-(1H-indazol-5-yl)-1-methyl-6-oxopyrimidin-4-yl]-2-fluorobenzonitrile]
IC50 [1]: < 100 nM | IC50 [2]: < 100 nM | IC50 [3]: < 100 nM

Cc1ccc(-c2c(-c3ccc(C#N)cc3)nc(N3CCC(N)CC3)n(C)c2=O)cn1 [Example 4, 4-[2-(4-amino-piperidin-1-yl)-1-methyl-5-(6-methyl-pyridin-3-yl)-6-oxo-1,6-dihydro-pyrimidin-4-yl]-benzonitrile]
IC50 [1]: < 100 nM | IC50 [2]: 100 to 1000 nM | IC50 [3]: < 100 nM

Cn1cc2cc(-c3c(-c4ccc(C#N)cc4)nc(N4CCC(N)CC4)n(C)c3=O)ccc2n1 [Example 24, 4-[2-(4-aminopiperidyl)-1-methyl-5-(2-methyl(2H-indazol-5-yl))-6-oxohydropyrimidin-4-yl]benzenecarbonitrile]
IC50 [2]: < 100 nM | IC50 [3]: < 100 nM

COc1cc([C@@H]2c3cc4c(cc3[C@@H](O[C@@H]3O[C@@H]5CO[C@@H](C)O[C@H]5[C@H](O)[C@H]3O)[C@H]3COC(=O)[C@H]23)OCO4)cc(OC)c1O [Etoposide, etoposide, reference compound]
% TGD [4, 6]: 50% | T − C [4, 6]: 21 days | median TTE [4, 6]: 63 days | median TTE ([4]; etoposide monotherapy 24 mg/kg SC): 63 days | % TGD ([5]; 24 mg/kg Etoposide SC QD x 3): 92% | T − C ([5]; 24 mg/kg Etoposide SC QD x 3): 24 days | median TTE ([5]; 24 mg/kg Etoposide SC QD x 3): 50 days | median TTE ([5]; etoposide monotherapy 24 mg/kg SC QD×3): 50 days

COc1ccc(-c2c(-c3ccc(C#N)c(F)c3)nc(N3CCC(N)CC3)n(C)c2=O)cn1 [Example 8, 4-[2-(4-amino-piperidin-1-yl)-5-(6-methoxy-pyridin-3-yl)-1-methyl-6-oxo-1,6-dihydro-pyrimidin-4-yl]-2-fluoro-benzonitrile]
IC50 [1]: < 100 nM | IC50 [2]: < 100 nM | IC50 [3]: < 100 nM

Cn1c(N2CCC(N)CC2)nc(-c2ccc(C#N)c(F)c2)c(-c2ccc3c(cnn3C)c2)c1=O [Example 35, 4-[2-(4-amino-piperidin-1-yl)-1-methyl-5-(1-methyl-1H-indazol-5-yl)-6-oxo-1,6-dihydro-pyrimidin-4-yl]-2-fluoro-benzonitrile]
IC50 [2]: < 100 nM | IC50 [3]: < 100 nM

CN(C)c1ccc(-c2c(-c3ccc(C#N)c(F)c3)nc(N3CCC(N)CC3)n(C)c2=O)cn1 [Example 57, 4-[2-(4-amino-piperidin-1-yl)-5-(6-dimethylamino-pyridin-3-yl)-1-methyl-6-oxo-1,6-dihydro-pyrimidin-4-yl]-2-fluoro-benzonitrile]
IC50 [1]: < 100 nM | IC50 [3]: < 100 nM
